Assay results from the supplement of paper PMC6045584.
± gives the standard deviation of the averaged measurements.

How the values were obtained:
ABT-737 = compound: CN(C)CC[C@H](CSc1ccccc1)Nc1ccc(S(=O)(=O)NC(=O)c2ccc(N3CCN(Cc4ccccc4-c4ccc(Cl)cc4)CC3)cc2)cc1[N+](=O)[O-] [ABT-737]; assay: surviving fraction relative to DMSO-only wells; higher = less growth inhibition; conditions: exposure time: 5 days
Outline: (§1)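 Tumour cell lines were seeded in log phase at 250–500 cells per well into 384-well plates. Starting 24 hours later, inhibitors were present continuously for five days at 0.5, 1, 5, 10, 50, 100, 500 and 1000 nM. Surviving fraction, from CellTiter-Glo luminescence, is normalised to the median of DMSO-only wells. Three screens per line were required, with replicate Pearson r >0.7 and median Z' >0.3 for a line to be kept.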

NUTLIN3 = compound: COc1ccc(C2=N[C@@H](c3ccc(Cl)cc3)[C@@H](c3ccc(Cl)cc3)N2C(=O)N2CCNC(=O)C2)c(OC(C)C)c1 [NUTLIN3]; assay: as above; conditions: exposure time: 5 days
Outline: as §1

| Test System | surviving fraction (ABT-737; 0.5 nM) | surviving fraction (ABT-737; 1 nM) | surviving fraction (ABT-737; 5 nM) | surviving fraction (ABT-737; 10 nM) | surviving fraction (ABT-737; 50 nM) | surviving fraction (ABT-737; 100 nM) | surviving fraction (ABT-737; 500 nM) | surviving fraction (ABT-737; 1000 nM) | surviving fraction (NUTLIN3; 0.5 nM) | surviving fraction (NUTLIN3; 1 nM) | surviving fraction (NUTLIN3; 5 nM) | surviving fraction (NUTLIN3; 10 nM) | surviving fraction (NUTLIN3; 50 nM) | surviving fraction (NUTLIN3; 100 nM) | surviving fraction (NUTLIN3; 500 nM) | surviving fraction (NUTLIN3; 1000 nM) |
| --- | --- | --- | --- | --- | --- | --- | --- | --- | --- | --- | --- | --- | --- | --- | --- | --- |
| SG27 HEADNECK | 1.26 ± 0.26 | 1.12 ± 0.12 | 1.19 ± 0.029 | 1.16 ± 0.079 | 1.15 ± 0.11 | 1.08 ± 0.13 | 0.88 ± 0.11 | 0.797 ± 0.059 | 1.01 ± 0.02 | 1.06 ± 0.12 | 0.998 ± 0.17 | 1.19 ± 0.19 | 0.998 ± 0.064 | 1 ± 0.062 | 0.788 ± 0.11 | 0.668 ± 0.06 |
| T47D BREAST | 1.13 ± 0.026 | 1.08 ± 0.031 | 1.08 ± 0.08 | 1.08 ± 0.025 | 1.03 ± 0.2 | 1.089 ± 0.0036 | 1.11 ± 0.11 | 1.05 ± 0.035 | 1.01 ± 0.029 | 0.993 ± 0.019 | 0.992 ± 0.043 | 1.01 ± 0.051 | 1.07 ± 0.029 | 1.08 ± 0.033 | 0.965 ± 0.075 | 0.937 ± 0.024 |
| MFM223 BREAST | 1.39 ± 0.39 | 1.4 ± 0.37 | 1.36 ± 0.35 | 1.52 ± 0.56 | 1.08 ± 0.091 | 1.05 ± 0.14 | 1.05 ± 0.082 | 1.2 ± 0.054 | 1.07 ± 0.079 | 1.04 ± 0.13 | 1.08 ± 0.058 | 1.06 ± 0.027 | 1.12 ± 0.045 | 1.12 ± 0.073 | 1.12 ± 0.063 | 1.07 ± 0.068 |
| SCC47 HEADNECK | 1.14 ± 0.033 | 1.13 ± 0.13 | 1.23 ± 0.09 | 1.25 ± 0.05 | 1.24 ± 0.087 | 1.2 ± 0.055 | 1.1 ± 0.053 | 1.14 ± 0.12 | 1.08 ± 0.082 | 1.03 ± 0.023 | 1.14 ± 0.026 | 1.135 ± 0.0096 | 1.13 ± 0.051 | 1.16 ± 0.088 | 1.07 ± 0.052 | 1.14 ± 0.099 |
| HELA CERVIX | 1.05 ± 0.04 | 1.05 ± 0.04 | 1.06 ± 0.017 | 1.06 ± 0.047 | 1.14 ± 0.085 | 1.11 ± 0.084 | 1.2 ± 0.13 | 1.16 ± 0.07 | 1.01 ± 0.092 | 1 ± 0.039 | 1 ± 0.025 | 0.984 ± 0.043 | 1.06 ± 0.044 | 1.07 ± 0.041 | 1.08 ± 0.03 | 1.13 ± 0.039 |
| MDAMB231 BREAST | 1 ± 0.031 | 0.99 ± 0.018 | 1.01 ± 0.014 | 1.01 ± 0.018 | 1.02 ± 0.041 | 1.01 ± 0.03 | 1 ± 0.018 | 0.941 ± 0.02 | 0.97 ± 0.013 | 0.976 ± 0.028 | 1.01 ± 0.017 | 0.977 ± 0.019 | 1.06 ± 0.017 | 1.06 ± 0.02 | 1 ± 0.026 | 0.995 ± 0.022 |
| PCI30 HEADNECK | 1.12 ± 0.029 | 1.09 ± 0.061 | 1.09 ± 0.096 | 1.07 ± 0.026 | 1.08 ± 0.023 | 1.13 ± 0.11 | 0.919 ± 0.091 | 0.909 ± 0.022 | 1.01 ± 0.034 | 0.93 ± 0.019 | 1.04 ± 0.026 | 1.06 ± 0.064 | 1.14 ± 0.062 | 1.09 ± 0.05 | 1.02 ± 0.041 | 1.04 ± 0.092 |
| RDES SOFT TISSUE | 1.26 ± 0.093 | 1.17 ± 0.053 | 1.13 ± 0.074 | 0.98 ± 0.036 | 0.765 ± 0.083 | 0.576 ± 0.034 | 0.405 ± 0.037 | 0.385 ± 0.058 | 1.25 ± 0.074 | 1.32 ± 0.076 | 1.07 ± 0.044 | 1.18 ± 0.14 | 1.17 ± 0.13 | 1 ± 0.17 | 1.4 ± 0.22 | 1.25 ± 0.17 |
| SCC003 HEADNECK | 1.11 ± 0.067 | 1.17 ± 0.03 | 1.16 ± 0.032 | 1.09 ± 0.021 | 1.15 ± 0.096 | 1.16 ± 0.1 | 1.19 ± 0.049 | 1.09 ± 0.069 | 1.05 ± 0.12 | 1.01 ± 0.081 | 1.03 ± 0.12 | 1 ± 0.088 | 1.06 ± 0.062 | 1.12 ± 0.07 | 1.09 ± 0.089 | 1.07 ± 0.13 |
| A549 LUNG | 1.06 ± 0.012 | 1.05 ± 0.022 | 1.07 ± 0.023 | 1.06 ± 0.03 | 1.07 ± 0.039 | 1.09 ± 0.039 | 1.12 ± 0.044 | 1.05 ± 0.053 | 0.984 ± 0.03 | 0.996 ± 0.031 | 0.963 ± 0.026 | 0.953 ± 0.016 | 1.01 ± 0.084 | 1.02 ± 0.019 | 1.04 ± 0.053 | 1.08 ± 0.061 |
| SG28 HEADNECK | 1.25 ± 0.068 | 1.17 ± 0.064 | 1.02 ± 0.07 | 1.081 ± 0.0014 | 1.036 ± 0.0064 | 1.09 ± 0.021 | 1.13 ± 0.14 | 1.04 ± 0.016 | 1.13 ± 0.065 | 1.03 ± 0.14 | 1.02 ± 0.12 | 1.07 ± 0.12 | 1.03 ± 0.14 | 1.02 ± 0.085 | 1.01 ± 0.11 | 0.919 ± 0.1 |
| MDAMB436 BREAST | 0.985 ± 0.085 | 1.09 ± 0.041 | 1.05 ± 0.14 | 0.972 ± 0.16 | 0.998 ± 0.1 | 1.14 ± 0.31 | 0.961 ± 0.17 | 0.962 ± 0.083 | 0.91 ± 0.076 | 0.835 ± 0.092 | 0.923 ± 0.033 | 0.928 ± 0.063 | 0.924 ± 0.074 | 0.895 ± 0.12 | 0.881 ± 0.041 | 0.941 ± 0.074 |
| MDAMB157 BREAST | 1.02 ± 0.026 | 0.995 ± 0.13 | 0.952 ± 0.069 | 0.964 ± 0.062 | 1.01 ± 0.032 | 1.01 ± 0.057 | 0.938 ± 0.028 | 0.893 ± 0.059 | 0.957 ± 0.071 | 0.961 ± 0.093 | 0.97 ± 0.11 | 0.913 ± 0.12 | 1.02 ± 0.075 | 1 ± 0.039 | 0.999 ± 0.051 | 1.04 ± 0.074 |
| HT1080 SOFT TISSUE | 1.06 ± 0.045 | 1.06 ± 0.018 | 1.05 ± 0.022 | 1.07 ± 0.045 | 1 ± 0.028 | 1.05 ± 0.029 | 1.01 ± 0.032 | 1.02 ± 0.028 | 1.02 ± 0.019 | 0.978 ± 0.031 | 0.998 ± 0.012 | 1.02 ± 0.018 | 0.9757 ± 0.0085 | 0.929 ± 0.01 | 0.797 ± 0.024 | 0.58 ± 0.046 |
| CME SYNOVIAL | 1.33 ± 0.17 | 1.37 ± 0.049 | 1.42 ± 0.099 | 1.37 ± 0.11 | 1.27 ± 0.23 | 1.42 ± 0.14 | 1.21 ± 0.099 | 1.23 ± 0.07 | 1.18 ± 0.1 | 1.29 ± 0.17 | 1.32 ± 0.16 | 1.24 ± 0.13 | 1.36 ± 0.16 | 1.44 ± 0.19 | 1.4 ± 0.073 | 1.22 ± 0.09 |
| U2OS BONE | 1.04 ± 0.048 | 1.04 ± 0.026 | 1.06 ± 0.055 | 1.04 ± 0.012 | 1.08 ± 0.035 | 1.11 ± 0.024 | 1.06 ± 0.029 | 1.02 ± 0.038 | 1.02 ± 0.037 | 1.05 ± 0.037 | 1.04 ± 0.039 | 1.02 ± 0.049 | 1.04 ± 0.023 | 1.04 ± 0.028 | 0.974 ± 0.022 | 0.897 ± 0.036 |
| H23 LUNG | 1.01 ± 0.043 | 1.06 ± 0.077 | 1.05 ± 0.066 | 1.06 ± 0.017 | 1.07 ± 0.067 | 1.1 ± 0.087 | 1.08 ± 0.065 | 1.048 ± 0.004 | 1.02 ± 0.062 | 1.01 ± 0.056 | 1.02 ± 0.034 | 1.04 ± 0.048 | 1.08 ± 0.055 | 1.09 ± 0.085 | 1.05 ± 0.044 | 0.912 ± 0.031 |
| CAL72 BONE | 1.04 ± 0.13 | 1.06 ± 0.12 | 1.06 ± 0.1 | 1.05 ± 0.12 | 1.11 ± 0.14 | 1.06 ± 0.13 | 1.08 ± 0.12 | 1.06 ± 0.17 | 1.09 ± 0.029 | 1.07 ± 0.033 | 1.1 ± 0.037 | 1.08 ± 0.055 | 1.08 ± 0.027 | 1.13 ± 0.043 | 1.1 ± 0.084 | 1.11 ± 0.024 |
| HCC202 BREAST | 1.36 ± 0.084 | 1.17 ± 0.2 | 1.07 ± 0.069 | 1.43 ± 0.17 | 1.1 ± 0.16 | 1.31 ± 0.17 | 1.15 ± 0.5 | 0.965 ± 0.018 | 1.1 ± 0.15 | 1.07 ± 0.14 | 1.14 ± 0.14 | 1.15 ± 0.17 | 1.2 ± 0.12 | 1.27 ± 0.13 | 1.23 ± 0.16 | 1.23 ± 0.21 |
| COLO320DM LARGE INTESTINE | 1.09 ± 0.057 | 1.13 ± 0.085 | 1.04 ± 0.14 | 1.03 ± 0.12 | 1.19 ± 0.083 | 1.12 ± 0.03 | 1.21 ± 0.13 | 1.13 ± 0.055 | 1.11 ± 0.093 | 1.07 ± 0.019 | 1.08 ± 0.079 | 1.1 ± 0.16 | 1.15 ± 0.16 | 1.21 ± 0.069 | 1.12 ± 0.065 | 1.19 ± 0.17 |
